In US20080076772A1, “Anti-Inflammatory Agents” (Pharma Mar S.A. Sociedad Unipersonal, priority 2004, published 2008):

Columns and labels:
CCL2 [1] = experiment: Constitutive CCL2 production by freshly isolated ovarian tumour cells (ELISA); type: cell-based, human; settings: 16 h
Excerpt: (§1) Tumour-associated macrophages (TAM) and tumour cells were isolated from the ascitic fluid of patients with diagnosed ovarian adenocarcinoma, admitted to the Clinic of Obstetrics and Gynecology of the University of Milan-Bicocca, S Gerardo Hospital. Cells contained in the ascitic fluid were centrifuged and isolated by differential density gradients of Ficoll and Percoll, and plastic adherence as previously described (see Allavena, P., Peccatori, F., Maggioni, D., Erroi, A., Sironi, M., Colombo, N., Lissoni, A., Galazka, A., Meiers, W., Mangioni, C., et al. Intraperitoneal recombinant gamma-interferon in patients with recurrent ascitic ovarian carcinoma: modulation of cytotoxicity and cytokine production in tumour-associated effectors and of major histocompatibility antigen expression on tumour cells. Cancer Res, 50: 7318-7323, 1990). Purity of TAM and tumour cell preparations was usually>65±10% as defined by morphology and phenotype analysis. Cells were treated with ecteinascidin 743 at the indicated concentrations and cultured for 1-5 days, as specified in figure legends. […]
(§2) Monocytes, macrophages and TAM were stimulated with 100 ng/ml LPS to induce maximal cytokine production. Determination of cytokines CCL2, TNF and IL-6 was measured by specific ELISA following the manufacturer's instructions. […]

[2] = test system: macrophage differentiation; experiment: In vivo treatment of tumour patients, in vitro differentiation of their monocytes to macrophages; parameters: species or system human; % inhibition of macrophage differentiation referred to cells before infusion: concentration or dose not given beside the values; settings: for Absolute numbers of marker positive macrophages/10,000 cells, Exposure to ecteinascidin 743: end of 3-h infusion, 5 days M-CSF
Description: Expression of cell membrane markers was performed by immunofluoresce and analyzed by Flow Cytometry. Cells were incubated with anti-CD14, anti-CD16, anti-CD68, anti-CD206 (mannose receptor) and then with FITC-goat anti-mouse Ig as described. At least 10,000 cells were analyzed.
Patients with sarcoma or ovarian cancer undergoing Phase II trial with ecteinascidin 743, were admitted to the European Oncology institute, Milano, Italy. Patients received ecteinascidin 743 ([…]) in a 3-h infusion. Blood samples (40 ml) were collected immediately before the treatment and at the end of the infusion (+3 h). Blood samples were immediately processed and Percoll purified monocytes (usually 10^6 cells) were cultured with M-CSF (20 ng/ml) for 5 days. Differentiated cells were harvested, counted and analyzed for phenotype expression, as described above. Results are presented as absolute numbers of marker-positive cells/10,000 cells.
To validate the above in vitro findings we tested whether the in vivo administration of ecteinascidin 743 in tumour patients could have measurable effects on monocyte viability and capacity to macrophage differentiation in vitro. A phase II trial with ecteinascidin 743 is currently underway in advanced ovarian adenocarcinoma patients who had failed two different cycles of conventional cis-platin and taxol-based chemotherapy. Tumour patients selected for this study were treated with 1300 ug/ml/m2 of ecteinascidin 743. Blood samples from patients were drawn just before drug administration and at the end of a 3-hour infusion. Purified monocytes were immediately isolated and cultured with M-CSF (20 ng/ml) for 5 days to induce macrophage differentiation and then analalyzed for phenotype expression. […] The data shown are the absolute numbers of marker positive cells for a total of 10,000 input cells.

monocytes [3] = experiment: Monocytopenia in cancer patients after in vivo treatment (blood formula); parameters: species or system human; settings: of 9 patients; decrease = 25% inhibition in at least one cycle; % of leukocytes and monocytes/ul of blood
Excerpt: We also investigated whether the in vivo treatment with ecteinascidin 743 caused a measurable monocytopenia in cancer patients. Monocyte values were obtained from blood formula during routine clinical analysis.

CCL2 [4] = experiment: CCL2 production by TAM (ELISA); type: cell-based, human; settings: 16 h, n=4
Excerpt: as §1, §2

monocytes [5] = experiment: Apoptosis of monocytes (Annexin V / PI staining); type: cell-based, human; settings: monocytes exposed to drug
Description: Cells exposed to treatments were fixed with ethanol 70%, washed in PBS and stained with propidium iodide (PI) solution containing 10 ug/ml PI in PBS and 25 μl RNAse 10,000 units, overnight in the dark. PI incorporation was evaluated on at least 20,000 cells/sample using a FACS Calibur instrument (Becton Dickinson, Sunnyvale, Calif., USA), with a bandpass filter at 620 nm. Apoptosis was detected by staining with AnnexinV and PI. FACS analysis was performed using a bandpass filter 530 and 620 nm for green (AnnexinV) and red (PI) fluorescence respectively, in combination with a […] dichroic mirror.

In the case of COc1cc2c(cc1O)CCN[C@]21CS[C@@H]2c3c(OC(C)=O)c(C)c4c(c3[C@H](COC1=O)N1[C@@H]2[C@H]2c3c(cc(C)c(OC)c3O)C[C@@H]([C@@H]1O)N2C)OCO4 [ecteinascidin 743], the “constitutive production of CCL2 by freshly isolated tumour cells” value (CCL2 [1]) is reported as “reduced”, the “subjects whose monocytes showed decreased macrophage differentiation after treatment” value ([2]; of 12 evaluable patients, blood at end of 3-hour infusion) is reported as 6 and the “% inhibition of macrophage differentiation referred to cells before infusion” value ([2]; patient UPN 1, CD16) is reported as 60%. For the same compound, the “Absolute numbers of marker positive macrophages/10,000 cells, Exposure to ecteinascidin 743” value (from here on “Absolute numbers”) ([2]; patient UPN 1, CD16) was 1248 /10,000 cells, the “% inhibition of macrophage differentiation referred to cells before infusion” value ([2]; patient UPN 1, CD68) was 45% and the “Absolute numbers” value ([2]; patient UPN 1, CD68) was 1473 /10,000 cells. The “% inhibition of macrophage differentiation referred to cells before infusion” value ([2]; patient UPN 1, CD206) was 88%, the “Absolute numbers” value ([2]; patient UPN 1, CD206) was 550 /10,000 cells and the “% inhibition of macrophage differentiation referred to cells before infusion” value ([2]; patient UPN 2, CD16) was 60%. For the same compound, the “Absolute numbers” value ([2]; patient UPN 2, CD16) was 1105 /10,000 cells, the “% inhibition of macrophage differentiation referred to cells before infusion” value ([2]; patient UPN 2, CD68) was 70% and the “Absolute numbers” value ([2]; patient UPN 2, CD68) was 1060 /10,000 cells. For the same compound, the “% inhibition of macrophage differentiation referred to cells before infusion” value ([2]; patient UPN 2, CD206) was 79%, the “Absolute numbers” value ([2]; patient UPN 2, CD206) was 595 /10,000 cells and the “% inhibition of macrophage differentiation referred to cells before infusion” value ([2]; patient UPN 3, CD68) was 80%. The “Absolute numbers” value ([2]; patient UPN 3, CD68) was 632 /10,000 cells, the “% inhibition of macrophage differentiation referred to cells before infusion” value ([2]; patient UPN 3, CD206) was 87% and the “Absolute numbers” value ([2]; patient UPN 3, CD206) was 474 /10,000 cells. For the same compound, the “% inhibition of macrophage differentiation referred to cells before infusion” value ([2]; patient UPN 4, CD16) was 41%, the “Absolute numbers” value ([2]; patient UPN 4, CD16) was 3050 /10,000 cells and the “% inhibition of macrophage differentiation referred to cells before infusion” value ([2]; patient UPN 4, CD68) was 55%. For the same compound, the “Absolute numbers” value ([2]; patient UPN 4, CD68) was 2460 /10,000 cells, the “% inhibition of macrophage differentiation referred to cells before infusion” value ([2]; patient UPN 5, CD16) was 63% and the “Absolute numbers” value ([2]; patient UPN 5, CD16) was 594 /10,000 cells. For the same compound, the “% inhibition of macrophage differentiation referred to cells before infusion” value ([2]; patient UPN 5, CD68) was 50%, the “Absolute numbers” value ([2]; patient UPN 5, CD68) was 815 /10,000 cells and the “% inhibition of macrophage differentiation referred to cells before infusion” value ([2]; patient UPN 6, CD16) was 83%. The “Absolute numbers” value ([2]; patient UPN 6, CD16) was 480 /10,000 cells, the “% inhibition of macrophage differentiation referred to cells before infusion” value ([2]; patient UPN 6, CD68) was 79% and the “Absolute numbers” value ([2]; patient UPN 6, CD68) was 505 /10,000 cells. The “patients showing a decrease in the number of monocytes” value (monocytes [3]) was 7, the “reduction of LPS-stimulated production of CCL2 by TAM” value (CCL2 [4]; LPS 100 ng/ml) was 50% and the “reduction of constitutive production of CCL2 by TAM” value (CCL2 [4]; no LPS) was 43%. The “Annexin V staining of dying monocytes (apoptosis)” value (monocytes [5]) was “stained positive for Annexin V”.
